Assays:
fungi [1] = settings: literature citation (1); cited from earlier work
fungi [2] = test: Antifungal activity; format: cell-based
Text: (§1) Antifungal activity of organotin compounds. Minimal concentra-
(§2) tion (mg/l) causing complete inhibition of visible growth (MIC;
(§3) after three days). -Test medium: glucose-agar; pH~6.9-7.0.

Aspergillus niger = format: cell-based; settings: after three days, glucose-agar, pH~6.9-7.0
Text: as §1, §2, §3

Cladosporium cucumerinum = format: cell-based; settings: after three days, glucose-agar, pH~6.9-7.0
Text: as §1, §2, §3

Botrytis allii = format: cell-based; settings: after three days, glucose-agar, pH~6.9-7.0
Text: as §1, §2, §3

Penicillium italicum = format: cell-based; settings: after three days, glucose-agar, pH~6.9-7.0
Text: as §1, §2, §3

S. lactis = format: cell-based; settings: S. lactis (Gram-pos.); after three days; peptone-glucose agar; pH ~ 6.9-7.0
Text: (§4) Antibacterial activity of organotin compounds. Minimal concentration
(§5) causing complete inhibition of visible growth (MIC; after three days).
(§6) Test medium: peptone-glucose agar; pH ~ 6.9-7.0.

E. coli = format: cell-based; settings: E. coli (Gram-neg.); after three days; peptone-glucose agar; pH ~ 6.9-7.0
Text: as §4, §5, §6

B. subtilis = format: cell-based; settings: B. subtilis (Gram-pos.); after three days; peptone-glucose agar; pH ~ 6.9-7.0
Text: as §4, §5, §6

P. fluorescens = format: cell-based; settings: P. fluorescens (Gram-neg.); after three days; peptone-glucose agar; pH ~ 6.9-7.0
Text: as §4, §5, §6

Structure (SMILES)	Minimal concentration causing complete inhibition of visible growth (MIC) (Aspergillus niger)	Minimal concentration causing complete inhibition of visible growth (MIC) (Cladosporium cucumerinum)	Minimal concentration causing complete inhibition of visible growth (MIC) (Botrytis allii)	Minimal concentration causing complete inhibition of visible growth (MIC) (Penicillium italicum)	Minimal concentration causing complete inhibition of visible growth (MIC) (S. lactis)	Minimal concentration causing complete inhibition of visible growth (MIC) (E. coli)	Minimal concentration causing complete inhibition of visible growth (MIC) (B. subtilis)	Minimal concentration causing complete inhibition of visible growth (MIC) (P. fluorescens)	also measured
CCC[CH2][Sn]([CH3])([Br])[CH2]CCC [MeBu2 SnBr]									antifungal activity, MIC values (fungi [1]): about 10 mg/l
CCC[CH2][Sn]([CH2]CCC)([CH2]CCC)[O][Sn]([CH2]CCC)([CH2]CCC)[CH2]CCC [bis(tributyltin)oxide, reference compound]									solubility in water: 0.003%
CCC[CH2][Sn]([CH2]CCC)([CH2]CCC)[CH2]Cc1ccncc1 [tributyl-[3-(4-pyridyl)ethyl]tin]									antifungal activity (in words) (fungi [2]): high antifungal activity
CCC[CH2][Sn]([CH2]CCC)([CH2]CCC)[CH2]CCCBr [Bu3 Sn(CH2)4 Br, (4-bromobutyl)tributyltin]									antifungal activity (in words) (fungi [2]): somewhat less effective, although they show a surprisingly effective antifungal activity
CCC[CH2][Sn]([Br])([CH2]CCC)[CH2]CCC [Bu3 SnBr]									antifungal activity, MIC values (fungi [1]): about 10 mg/l
CCC[CH2][Sn]([CH2]CCC)([CH2]CCC)[CH2]CCBr [Bu3 Sn(CH2)3 Br, (3-bromopropyl)tributyltin]									antifungal activity (in words) (fungi [2]): somewhat less effective, although they show a surprisingly effective antifungal activity
CCC[CH2][Sn]([CH3])([Br])[CH2]CC[N+](C)(C)C.[I-] (stereo not drawn) [MeBuBrSn(CH2)3 NMe3 I, reference compound]	> 500 µg/mL	> 500 µg/mL	> 500 µg/mL	> 500 µg/mL					antifungal activity, MIC (fungi [2]): > 500 µg/mL
CC[CH2][Sn]([CH2]CC)([CH2]CC)[CH2]CCNCCCN(C)C [Pr3 Sn(CH2)3 NH(CH2)3 NMe2, N-[3-(tripropylstannyl)propyl-N', N'-dimethyltrimethylene]diamine]	10 µg/mL	≤ 10 µg/mL	≤ 10 µg/mL	≤ 10 µg/mL	10 µg/mL	10 µg/mL	10 µg/mL	10 µg/mL	
CC[CH2][Sn]([CH2]CC)([CH2]CC)[CH2]CCNCCCN(C)C.Cl.Cl [Pr3 Sn(CH2)3 NH(CH2)3 NMe2 . 2]	20 µg/mL	20 µg/mL	≤ 10 µg/mL	10 µg/mL	10 µg/mL	10 µg/mL	10 µg/mL	10 µg/mL	solubility in water: 50%
CCC[CH2][Sn]([CH2]CCC)([CH2]CCC)[CH2]CCN(C)C.Cl [Bu3 Sn(CH2)3 NMe2 . HCl]	5 µg/mL	5 µg/mL	5 µg/mL	5 µg/mL	10 µg/mL	300 µg/mL	10 µg/mL	300 µg/mL	
CCC[CH2][Sn]([CH3])([Br])[CH2]CC (stereo not drawn) [MePrBuSnBr]									antifungal activity, MIC values (fungi [1]): about 10 mg/l
CCC[CH2][Sn]([CH2]CCC)([CH2]CCC)[CH2]CCOC(C)=O [Bu3 Sn(CH2)3 OCOCH3]	50 µg/mL	20 µg/mL	50 µg/mL	20 µg/mL	100 µg/mL	> 1000 µg/mL	100 µg/mL	300 µg/mL	
